Data: US6545037B2, “Benzenesulfonamide compounds” (Les Laboratoires Servier, priority 2000, dated 2003)

Legend:
[1] = tested on: Platelet-rich plasma (PRP); assay: Platelet aggregation in man induced by the TXA2 agonist U46619; assay type: cell-based; details: human PRP, U46619 1 μM
Protocol: (§1) Platelet aggregation in man
(§2) Venous blood is obtained from human volunteers who have not taken aspirin for at least 14 days prior to the experiment. The blood is removed over sodium citrate (0.109 M) (1 vol. of citrate over 9 vol. of blood). Platelet-rich plasma (PRP) is obtained by centrifugation (20° C.) at 200 g for 10 minutes. The number of platelets is on average 250000 PL/mm^3. The PRP is stored at room temperature until the test and is used within 2 hours of having been taken. The TXA2 agonist U46619 is used at a concentration of 1 μM and 5-hydroxytryptamine is used at a concentration of 10 μM, the latter in the presence of 0.3 μM adenosine diphosphate and 1 μM adrenalin.
(§3) The values indicate that the compounds of the invention are powerful platelet anti-aggregants, which act in a balanced manner on the two activation routes, that of TXA2 and that of serotonin.

[2] = tested on: Platelet-rich plasma (PRP); assay: Platelet aggregation in man induced by 5-hydroxytryptamine; assay type: cell-based; details: human PRP, 5-hydroxytryptamine 10 μM in the presence of 0.3 μM adenosine diphosphate and 1 μM adrenalin, read-out: IC50, platelet aggregation produced by 5-hydroxytryptamine
Protocol: as §1, §2, §3

In the case of `O=C(O)CCc1cc(CCN2CCC(c3nsc4cc(F)ccc34)CC2)cc2c1CCC(NS(=O)(=O)c1ccc(Cl)cc1)C2` (centres unmarked) [Example 4, 3-(6-{[(4-Chlorophenyl)sulphonyl]amino}-3-{2-[4-(6-fluoro-1,2-benzisothiazol-3-yl)-1-piperidinyl]ethyl}-5,6,7,8-tetrahydro-1-naphthyl)propanoic acid], the IC50 [1] is reported as 170 nM and the IC50 [2] is reported as 230 nM.
